Source: article PMC5206724, “Insensitivity to pain induced by a potent selective closed-state Nav1.7 inhibitor” (Scientific Reports, 2017)

Key:
hNav1.7 = target: T1, hNav1.7 (Homo sapiens, UniProt Q15858); assay: cell-based; conditions: patch clamp method not given; read-out: pIC50 Nav1.7 (converted)
T1 construct: host or cells: HEK293

hNav1.4 = hNav1.4 (Homo sapiens, UniProt P35499); assay: cell-based; conditions: patch clamp method not given; read-out: pIC50 Nav1.4 (converted)
hNav1.6 = hNav1.6 (Homo sapiens, UniProt Q9UQD0); assay: cell-based; conditions: patch clamp method not given; read-out: pIC50 Nav1.6 (converted)
hNav1.6, sequence (Q9UQD0 whole entry): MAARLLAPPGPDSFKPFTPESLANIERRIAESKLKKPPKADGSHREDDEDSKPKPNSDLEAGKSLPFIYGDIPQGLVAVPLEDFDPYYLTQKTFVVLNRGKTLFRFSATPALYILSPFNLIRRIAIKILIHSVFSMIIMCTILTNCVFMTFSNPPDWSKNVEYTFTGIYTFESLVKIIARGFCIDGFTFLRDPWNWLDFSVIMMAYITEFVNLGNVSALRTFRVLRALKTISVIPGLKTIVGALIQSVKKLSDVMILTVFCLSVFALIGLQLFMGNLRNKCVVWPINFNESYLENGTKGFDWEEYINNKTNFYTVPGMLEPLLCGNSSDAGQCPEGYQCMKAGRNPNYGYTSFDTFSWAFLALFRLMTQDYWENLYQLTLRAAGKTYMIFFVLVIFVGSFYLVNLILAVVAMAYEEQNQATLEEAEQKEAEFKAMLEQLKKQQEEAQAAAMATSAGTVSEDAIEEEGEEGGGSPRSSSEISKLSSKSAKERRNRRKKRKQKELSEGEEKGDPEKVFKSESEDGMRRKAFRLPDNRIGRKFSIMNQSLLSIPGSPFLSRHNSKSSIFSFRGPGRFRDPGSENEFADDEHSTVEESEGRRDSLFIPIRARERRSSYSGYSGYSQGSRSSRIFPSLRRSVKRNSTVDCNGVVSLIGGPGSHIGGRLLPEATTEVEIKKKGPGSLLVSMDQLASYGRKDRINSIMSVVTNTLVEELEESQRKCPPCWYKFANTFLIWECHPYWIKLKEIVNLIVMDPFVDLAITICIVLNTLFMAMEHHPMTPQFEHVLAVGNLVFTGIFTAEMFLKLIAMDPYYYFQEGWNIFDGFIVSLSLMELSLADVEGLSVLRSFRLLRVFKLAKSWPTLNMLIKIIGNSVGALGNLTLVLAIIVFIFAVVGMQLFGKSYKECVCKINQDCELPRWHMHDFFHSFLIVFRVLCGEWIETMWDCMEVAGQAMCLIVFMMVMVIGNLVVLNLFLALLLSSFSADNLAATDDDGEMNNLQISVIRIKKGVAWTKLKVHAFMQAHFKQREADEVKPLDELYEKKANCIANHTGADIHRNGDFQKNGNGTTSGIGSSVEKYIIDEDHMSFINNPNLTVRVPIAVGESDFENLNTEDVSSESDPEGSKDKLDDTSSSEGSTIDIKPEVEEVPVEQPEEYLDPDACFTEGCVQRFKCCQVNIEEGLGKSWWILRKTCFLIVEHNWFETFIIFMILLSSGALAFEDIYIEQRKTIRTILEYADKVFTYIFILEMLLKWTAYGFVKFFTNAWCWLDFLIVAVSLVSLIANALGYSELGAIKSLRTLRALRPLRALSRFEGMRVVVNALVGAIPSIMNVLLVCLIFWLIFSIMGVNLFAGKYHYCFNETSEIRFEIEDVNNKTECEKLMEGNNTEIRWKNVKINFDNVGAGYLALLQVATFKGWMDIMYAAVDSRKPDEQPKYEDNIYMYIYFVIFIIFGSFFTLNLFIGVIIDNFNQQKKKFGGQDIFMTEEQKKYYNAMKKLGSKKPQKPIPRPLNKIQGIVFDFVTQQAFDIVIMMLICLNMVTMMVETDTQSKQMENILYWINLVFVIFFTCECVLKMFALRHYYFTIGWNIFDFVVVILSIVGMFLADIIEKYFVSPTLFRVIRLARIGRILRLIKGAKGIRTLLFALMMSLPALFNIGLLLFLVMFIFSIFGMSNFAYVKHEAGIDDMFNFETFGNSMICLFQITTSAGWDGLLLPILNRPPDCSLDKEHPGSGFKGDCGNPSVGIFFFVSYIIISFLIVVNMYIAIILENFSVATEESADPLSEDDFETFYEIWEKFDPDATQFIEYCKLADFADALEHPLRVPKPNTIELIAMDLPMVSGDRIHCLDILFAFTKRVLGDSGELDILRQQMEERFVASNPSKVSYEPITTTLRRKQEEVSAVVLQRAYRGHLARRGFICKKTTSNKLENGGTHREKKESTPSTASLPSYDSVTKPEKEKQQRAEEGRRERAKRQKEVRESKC

[1] = system: TTX-resistant sodium current, rat DRG cells; assay: Rat DRG patch clamp, TTX-resistant current; assay type: cell-based
[2] = system: TTX-sensitive current, rat DRG cells; assay type: cell-based
[3] = system: mixed sodium current, rat DRG cells; assay type: cell-based
[4] = system: formalin-induced flinching, rat; conditions: in vivo
[5] = system: formalin-induced flinching, morphine-tolerant rats; conditions: rat, in vivo
Protocol: A soft metal band was glued to the plantar side of one hind paw and rats were allowed to acclimate in the test chamber for 30 min. […] The incidence of nociceptive behavior - flinching and shaking of the injected paw was counted by an automated formalin apparatus (University Anesthesia Research and Development Group, Department of Anesthesiology, University of California, San Diego, La Jolla, CA). The number of paw flinches was tallied by minute over 60 min[60]. Total flinches in phase I (0~10 min) and phase II (11~60 min) were calculated.
Male Sprague-Dawley (CD) rats (Charles River, San Diego) ~250–300 g were catheterized intrathecally as described above. The non-indwelling end (PE60) of the catheter was connected to the flow modulator of an osmotic pump (Alzet 2001, 1 μl/h) loaded with morphine or saline vehicle, which underwent priming at 37 °C overnight in sterile saline. The osmotic pump was implanted subcutaneously above the scapula. To induce morphine tolerance, morphine was infused intrathecally by the osmotic pump at a dose of 15 μg/h for 7 days[61]. On day 7 the pumps were extracted and the wounds were closed with the intrathecal catheters left in place. Catheters were flushed with 20 μL of saline.

[6] = system: formalin-induced flinching, morphine-tolerant rats; conditions: rat, in vivo; cited from earlier work
[7] = rat, in vivo
[8] = rat, in vivo, iv; cited from earlier work

hNav1.4, sequence (P35499 whole entry): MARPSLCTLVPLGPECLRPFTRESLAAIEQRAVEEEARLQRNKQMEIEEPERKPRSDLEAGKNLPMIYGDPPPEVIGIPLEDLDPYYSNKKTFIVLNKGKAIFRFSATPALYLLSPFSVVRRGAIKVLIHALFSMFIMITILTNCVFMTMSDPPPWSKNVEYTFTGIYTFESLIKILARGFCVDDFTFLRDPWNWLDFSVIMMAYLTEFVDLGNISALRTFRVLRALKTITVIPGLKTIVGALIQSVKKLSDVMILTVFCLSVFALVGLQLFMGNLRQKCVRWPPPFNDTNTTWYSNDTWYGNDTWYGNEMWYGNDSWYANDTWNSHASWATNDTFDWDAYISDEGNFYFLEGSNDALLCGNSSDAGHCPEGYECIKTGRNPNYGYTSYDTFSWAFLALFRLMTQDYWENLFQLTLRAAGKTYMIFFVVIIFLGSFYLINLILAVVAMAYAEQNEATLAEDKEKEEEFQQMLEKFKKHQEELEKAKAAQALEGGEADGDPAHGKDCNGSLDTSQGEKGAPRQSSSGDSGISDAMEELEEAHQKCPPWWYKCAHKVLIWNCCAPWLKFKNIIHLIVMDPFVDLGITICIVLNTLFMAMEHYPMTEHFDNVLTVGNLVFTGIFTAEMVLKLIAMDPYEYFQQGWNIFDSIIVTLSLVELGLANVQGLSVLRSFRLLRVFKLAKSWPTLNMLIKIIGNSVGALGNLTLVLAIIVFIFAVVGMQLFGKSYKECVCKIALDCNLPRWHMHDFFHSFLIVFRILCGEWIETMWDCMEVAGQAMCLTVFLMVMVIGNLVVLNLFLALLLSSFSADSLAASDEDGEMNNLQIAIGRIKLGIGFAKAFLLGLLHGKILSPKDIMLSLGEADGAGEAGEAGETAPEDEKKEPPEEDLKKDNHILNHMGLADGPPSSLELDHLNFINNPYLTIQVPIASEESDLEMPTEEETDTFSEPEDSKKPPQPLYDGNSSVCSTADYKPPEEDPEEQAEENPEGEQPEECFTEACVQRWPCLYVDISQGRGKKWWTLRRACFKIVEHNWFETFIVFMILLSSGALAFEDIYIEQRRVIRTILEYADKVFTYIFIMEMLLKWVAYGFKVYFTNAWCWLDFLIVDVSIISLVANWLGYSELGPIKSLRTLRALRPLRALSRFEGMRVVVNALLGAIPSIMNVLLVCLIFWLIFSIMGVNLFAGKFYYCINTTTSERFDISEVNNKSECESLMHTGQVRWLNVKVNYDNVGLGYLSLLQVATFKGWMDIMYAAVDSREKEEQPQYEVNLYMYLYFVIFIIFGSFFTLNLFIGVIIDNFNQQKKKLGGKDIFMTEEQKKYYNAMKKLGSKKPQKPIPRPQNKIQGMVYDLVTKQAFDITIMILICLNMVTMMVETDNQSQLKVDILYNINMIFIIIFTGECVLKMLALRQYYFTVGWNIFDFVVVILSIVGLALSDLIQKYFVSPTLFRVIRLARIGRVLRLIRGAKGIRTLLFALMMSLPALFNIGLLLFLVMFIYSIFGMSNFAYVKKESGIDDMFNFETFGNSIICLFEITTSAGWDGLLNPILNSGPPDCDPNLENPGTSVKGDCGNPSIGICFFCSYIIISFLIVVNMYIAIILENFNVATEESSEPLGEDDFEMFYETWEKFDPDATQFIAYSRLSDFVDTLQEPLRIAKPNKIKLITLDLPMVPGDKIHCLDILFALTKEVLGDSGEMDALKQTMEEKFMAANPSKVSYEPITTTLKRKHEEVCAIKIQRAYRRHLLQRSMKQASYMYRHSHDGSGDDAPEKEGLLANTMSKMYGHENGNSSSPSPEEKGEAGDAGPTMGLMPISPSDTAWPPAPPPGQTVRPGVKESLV

Which results are given for CSCC[C@@H]1NC(=O)CNC(=O)[C@H](CCC(=O)O)NC(=O)[C@@H]2CSSC[C@H](NC(=O)[C@@H](N)Cc3ccc(O)cc3)C(=O)N[C@@H](CCC(N)=O)C(=O)N[C@@H](CCCCN)C(=O)N[C@@H](Cc3c[nH]c4ccccc34)C(=O)N[C@@H](CCSC)C(=O)N[C@@H](CCC(N)=O)C(=O)N[C@@H]([C@@H](C)O)C(=O)N[C@H]3CSSC[C@H](NC(=O)[C@H](C(C)C)NC1=O)C(=O)N[C@@H](CCCNC(=N)N)C(=O)N[C@@H](CC(C)C)C(=O)N[C@@H](Cc1c[nH]c4ccccc14)C(=O)N[C@H](C(=O)N[C@@H](CCCCN)C(=O)N[C@@H](CCCCN)C(=O)N[C@@H](CCCCN)C(=O)N[C@@H](CC(C)C)C(=O)N[C@@H](CC(C)C)C(=O)O)CSSC[C@H](NC(=O)[C@H](CCCCN)NC(=O)[C@H](CCCNC(=N)N)NC(=O)[C@H](CCC(=O)O)NC(=O)[C@H](CO)NC(=O)[C@H](CC(=O)O)NC3=O)C(=O)N2 [ProTX-II W7Q, W30L]?
IC50 (hNav1.7): 10 nM; IC50 (hNav1.4): 3980 nM; IC50 (hNav1.6): 2000 nM

What does the source list for NC1=N[C@H](O)[C@H]2[C@H]3O[C@]4(O)O[C@@H]([C@@H](O)[C@@]2(N1)[C@@H]4O)[C@]3(O)CO [TTX, tetrodotoxin]?
block, predominantly TTX-resistant cells [1]: < 10%; block, predominantly TTX-sensitive cells [2]: ~ 100%; block, mixed cells [3]: 29–68%

Which results are given for CN1CC[C@]23c4c5ccc(O)c4O[C@H]2[C@@H](O)C=C[C@H]3[C@H]1C5 [morphine]?
pED50 formalin (phase II) [4]: 5.4 ± 0.22 −log g; efficacy during morphine infusion, day 7 [5]: loses its efficacy by day 7; phase II formalin flinching, morphine-tolerant rats [5]: did not significantly reduce phase II formalin flinching; block of phase 2 during morphine infusion, day 2 [6]: significant block of phase 2 on day 2

What does the source list for ziconotide [reference compound]?
pED50 formalin (phase II) [4]: 7.1 ± 0.18 −log g; behavioral side effects [7]: whole body shakes, increased muscle tone and “serpentine” tail movement; scratching behavior [7]: did not induce scratching behavior; histamine release and hemodynamic changes [8]: induce histamine release and associated hemodynamic changes
